Assay: HILIC, Waters ACQUITY UPLC BEH Amide, 100 × 2.1 mm, 1.7 µm; A: water + 0.125% formic acid + 10 mM ammonium formate; B: 5% water + 95% acetonitrile + 0.125% formic acid + 10 mM ammonium formate; gradient (min/%B) 0/100 2/100 7.7/70 9.5/40 10.25/30 12.75/100 17/100
Settings: stereoisomer not certain

Structure (SMILES) | LC retention time [min]
CC12CCC(=O)C=C1CCC1C2CCC2(C)C1CCC2(O)C(=O)CO (stereo not given) [Cortodoxone] | 1.15
NC(N)=NCCCC(N)C(=O)NCC(=O)O (stereo not given) [Arg-Gly] | 9.85
CC(C)CC(N)C(=O)NC(C)C(=O)O (stereo not given) [Leu-Ala] | 5
CN(C)C(N)=NCCCC(N)C(=O)O (stereo not given) [ADMA] | 8.55
NCCCCNCCCN [Spermidine] | 6.98
CN1C2CCC1CC(OC(=O)C(CO)c1ccccc1)C2 (stereo not given) [Atropine] | 4.32
CC(C)CC(NC(=O)C(C)N)C(=O)O (stereo not given) [Ala-Leu] | 7.6
Cc1ccnc2c1NC(=O)c1cccnc1N2C1CC1 [Viramune] | 1.16
Fc1ccc(C2CCNCC2COc2ccc3c(c2)OCO3)cc1 (stereo not given) [Paroxetine] | 3.08
Cn1c(N)nc2c(ncn2C2OC(CO)C(O)C2O)c1=O (stereo not given) [1-Methylguanosine] | 5.84
CN1C(=O)CC(=O)N(c2ccccc2)c2cc(Cl)ccc21 [Clobazam] | 1.1
COc1ccc(C(=O)O)cc1 [P-Anisic acid] | 1.3
CN1CCC(=C2c3ccccc3CC(=O)c3sccc32)CC1 [Ketotifen] | 2.71
COc1ccc(Cc2nccc3cc(OC)c(OC)cc23)cc1OC [Papaverine] | 1.54
NC(CCC(=O)NC(CS)C(=O)NCC(=O)O)C(=O)O (stereo not given) [Glutathione (reduced)] | 9.07
CN1C2CCC1CC(OC(=O)c1c[nH]c3ccccc13)C2 (stereo not given) [Tropisetron] | 3.81
COc1cc(C(=O)NS(=O)(=O)c2ccccc2C)ccc1Cc1cn(C)c2ccc(NC(=O)OC3CCCC3)cc12 [Zafirlukast] | 1
COC(=O)C1=C(C)NC(C)=C(C(=O)OC)C1c1ccccc1[N+](=O)[O-] [Nifedipine] | 1.02
COc1ccc(C(CN(C)C)C2(O)CCCCC2)cc1 (stereo not given) [Venlafaxine] | 2.44
CC(=O)OCC1OC(Oc2c(-c3ccc(O)c(O)c3)oc3cc(O)cc(O)c3c2=O)C(O)C(O)C1O (stereo not drawn) [Quercetin-3-O-beta-glucopyranosyl-6'-acetate] | 4.61
O=C(CCNNC(=O)c1ccncc1)NCc1ccccc1 [Nialamide] | 1.69
CCOC(=O)C(CCc1ccccc1)NC(C)C(=O)N1C(C(=O)O)CC2CCCC21 (stereo not given) [Ramipril] | 1.4
O=C(CCCN1CCC(O)(c2ccc(Cl)cc2)CC1)c1ccc(F)cc1 [Haloperidol] | 2.31

Structure (SMILES) | LC retention time [min]
Nc1ccccc1C(=O)CC(N)C(=O)O (stereo not given) [Kynurenine] | 6.98
NCCc1ccc(O)cc1 [Tyramine] | 5.58
O=C(O)Cc1ccccc1Nc1c(Cl)cccc1Cl [Diclofenac] | 1.08
O=C(O)c1ccc[nH]1 [Pyrrole-2-carboxylic acid] | 5.66
CCC1OC(=O)C(C)C(OC2CC(C)(OC)C(O)C(C)O2)C(C)C(OC2OC(C)CC(N(C)C)C2O)C(C)(OC)CC(C)C(=O)C(C)C(O)C1(C)O (stereo not given) [Clarithromycin] | 3
COC(=O)C1=C(C)NC(C)=C(C(=O)OC(C)C)C1c1cccc2nonc12 (stereo not given) [Isradipine] | 0.95
Cc1ncc(COP(=O)(O)O)c(C=O)c1O [Pyridoxal-5-phosphate] | 7.7
CC(C)c1nc(CN(C)C(=O)NC(C(=O)NC(Cc2ccccc2)CC(O)C(Cc2ccccc2)NC(=O)OCc2cncs2)C(C)C)cs1 (stereo not given) [Ritonavir] | 1.15
O=c1[nH]c(=O)n(C2CCCO2)cc1F (stereo not given) [Tegafur] | 1.22
C=C1CC2C(CCC3(C)C(=O)CCC23)C2(C)C=CC(=O)C=C12 (stereo not given) [Exemestane] | 0.98
O=C(O)C1CC(O)CN1 (stereo not given) [Hydroxyproline] | 8.14
Nc1ncnc2c1ncn2C1OC(CO)C(O)C1O (stereo not given) [Adenosine] | 4.77
CCCNC1CCc2nc(N)sc2C1 (stereo not given) [Pramipexole] | 5.7
O=c1cnn(C2OC(CO)C(O)C2O)c(=O)[nH]1 (stereo not given) [6-Azuridine] | 4.31
CN1CCN(CCCN2c3ccccc3Sc3ccc(Cl)cc32)CC1 [Prochlorperazine] | 2.56
CN(C)c1ccc(N=Nc2ccccc2)cc1 [p-(Dimethylamino)azobenzene [methyl yellow]] | 0.93
Cc1ccc(O)c(C(CCN(C(C)C)C(C)C)c2ccccc2)c1 (stereo not given) [Tolterodine] | 2.13
COCCOC(=O)C1=C(C)NC(C)=C(C(=O)OC(C)C)C1c1cccc([N+](=O)[O-])c1 (stereo not given) [Nimodipine] | 0.94
O=C1CCC(C(=O)O)N1 (stereo not given) [Pyroglutamic acid] | 8.71
COC1C(O)C(CO)OC1n1ccc(=O)[nH]c1=O (stereo not given) [2'-O-Methyluridine] | 2.24
NCC1CCC(C(=O)O)CC1 (stereo not given) [4-Aminomethylcyclohexanecarboxylic acid] | 6.6
CC(C)CC(=O)NCC(=O)O [N-Isovalerylglycine] | 2.94
Cn1c(NCCN(CCO)CCCc2ccc([N+](=O)[O-])cc2)cc(=O)n(C)c1=O [Nifekalant] | 3.21

Structure (SMILES) | LC retention time [min]
NC(=O)NCCC(=O)O [3-Ureidopropionic acid] | 5.6
COc1ccc2nc(S(=O)Cc3ncc(C)c(OC)c3C)[nH]c2c1 (stereo not given) [Esomeprazole] | 1.35
NC(Cc1ccc(O)cc1)C(=O)O (stereo not given) [Tyrosine] | 7.61
CCC(=O)NCC(=O)O [2-Propanamidoacetic acid] | 5.37
NC(=O)NC(NC(N)=O)C(=O)O [Allantoic acid] | 8.56
O=C(C=Cc1ccccc1O)c1ccccc1 [2-Hydroxychalcone] | 1.01
COC(=O)N1CCN(C(=O)Cc2ccc(Cl)c(Cl)c2)C(CN2CCCC2)C1 (stereo not given) | 2.56
CCOC(=O)C(C)Oc1ccc(Oc2nc3ccc(Cl)cc3o2)cc1 (stereo not given) [Fenoxaprop-P-ethyl] | 1.01
O=C(OC1C(Oc2ccccc2COC(=O)C2(O)C=CCCC2=O)OC(CO)C(O)C1O)c1ccccc1 (stereo not given) [Tremulacin] | 1.51
NC(C(=O)NC1C(=O)N2C(C(=O)O)=C(CSc3cn[nH]n3)CSC12)c1ccc(O)cc1 (stereo not given) [Cefatrizine] | 7.98
CC1C(c2ccccc2)OCCN1C (stereo not given) [Phendimetrazine] | 2.52
NC(N)=NCCC(=O)O [3-Guanidinopropionic acid] | 8.15
CC1OC(OC2C(Oc3cc(O)c4c(c3)OC(c3ccc(O)cc3)CC4=O)OC(CO)C(O)C2O)C(O)C(O)C1O (stereo not given) [Naringin] | 5.61
OCc1ccccc1OC1OC(CO)C(O)C(O)C1O (stereo not given) [Salicin] | 4.48
C=CC1=C(C(=O)O)N2C(=O)C(NC(=O)C(=NO)c3csc(N)n3)C2SC1 (stereo not given) [Cefdinir] | 6.94
CN=C(N)NCCCC(N)C(=O)O (stereo not given) [Targinine] | 9.22
Cc1ncc([N+](=O)[O-])n1CC(O)CCl (stereo not given) [Ornidazole] | 1.08
NCC(=O)c1ccccc1 [2-Aminoacetophenone] | 1.08
CC1=NS(=O)(=O)c2cc(Cl)ccc2N1 [Diazoxide] | 1.09
CCCCCC(=O)O [Hexanoic acid] | 4.89
CC(O)C(N)=O (stereo not given) [Lactamide] | 1.74
Nc1ncnc2c1ncn2C1OC(CSCCC(N)C(=O)O)C(O)C1O (stereo not given) [S-Adenosyl-homocysteine] | 8.85
CN(C)CCN(Cc1ccccc1)c1ccccn1 [Tripelennamine] | 1.98

Structure (SMILES) | LC retention time [min]
CNC(=C[N+](=O)[O-])NCCSCc1csc(CN(C)C)n1 [Nizatidine] | 4.65
NC(N)=NCCCC(=O)O [4-Guanidinobutyric acid] | 7.72
NCCC(=O)NC(Cc1cnc[nH]1)C(=O)O (stereo not given) [Carnosine] | 9.54
CCC(C)C(N)C(=O)O (stereo not given) [Isoleucine] | 7.18
O=CCc1ccccc1 [Phenylacetaldehyde] | 5.4
Nc1ccccc1S(=O)(=O)O [Orthanilic acid] | 2.52
Cn1nnc2c(C(N)=O)ncn2c1=O [Temozolomide] | 1.33
CN1C2CC(OC(=O)C(CO)c3ccccc3)CC1C1OC12 (stereo not given) [Scopolamine] | 3.75
Nc1ccc(O)c(C(=O)O)c1 | 3.89
C[N+](C)(C)CC(O)CC(=O)[O-] (stereo not given) [Carnitine] | 7.83
OCC1OC(OCC2OC(OC3(CO)OC(CO)C(O)C3O)C(O)C(O)C2O)C(O)C(O)C1O (stereo not given) [Raffinose] | 9.17
CN(C)CCC=C1c2ccccc2COc2ccc(CC(=O)O)cc21 [Olopatadine] | 4.41
CN(C)CCCN1c2ccccc2CCc2ccc(Cl)cc21 [Clomipramine] | 2.31
O=C1Nc2ccc(Cl)cc2C(c2ccccc2)=NC1O (stereo not given) [Oxazepam] | 1.37
Nc1nc(Cl)nc2c1ncn2C1CC(O)C(CO)O1 (stereo not given) [Cladribine] | 1.95
C=CCC1C=C(C)CC(C)CC(OC)C2OC(O)(C(=O)C(=O)N3CCCCC3C(=O)OC(C(C)=CC3CCC(O)C(OC)C3)C(C)C(O)CC1=O)C(C)CC2OC (stereo not given) [Tacrolimus] | 1.07
CC(=O)NC(Cc1cnc[nH]1)C(=O)O (stereo not given) [N-Acetylhistidine] | 8.07
Nc1nc(N)nc(-c2cc(Cl)ccc2Cl)n1 [Irsogladine] | 1.25
O=C1Nc2ccc(Cl)cc2C(C#CC2CC2)(C(F)(F)F)O1 (stereo not given) [Efavirenz] | 0.98
CN1CCC(=C2c3ccccc3CCc3sccc32)CC1 [Pizotifen] | 2.33
CSc1ncnc2nc[nH]c12 [6-Methylmercaptopurine] | 1.49

Reference: the RepoRT retention time repository
